Measurements published in patent US20210070748A1, “INHIBITORS OF BRUTONS TYROSINE KINASE” (Pharmacyclics LLC, priority 2015, published 2021).

How the values were obtained:
[1] = target: SRC (Homo sapiens, UniProt P12931); experiment: Inhibition of a panel of kinases, in vitro HotSpot kinase assay: SRC; format: biochemical; conditions: D-compounds panel data; 1 μM ATP
Procedure: The degree of inhibition of a panel of kinases is determined using the in vitro HotSpot kinase assay (purified enzymes, ^33P-ATP, an appropriate substrate and 1 μM ATP).

[2] = target: T1, JAK3 (Homo sapiens, UniProt P52333); experiment: Inhibition of a panel of kinases, in vitro HotSpot kinase assay: JAK3; format: biochemical; conditions: D-compounds panel data; 1 μM ATP; read-out: IC50 JAK3
T1 sequence (P52333 1-1124): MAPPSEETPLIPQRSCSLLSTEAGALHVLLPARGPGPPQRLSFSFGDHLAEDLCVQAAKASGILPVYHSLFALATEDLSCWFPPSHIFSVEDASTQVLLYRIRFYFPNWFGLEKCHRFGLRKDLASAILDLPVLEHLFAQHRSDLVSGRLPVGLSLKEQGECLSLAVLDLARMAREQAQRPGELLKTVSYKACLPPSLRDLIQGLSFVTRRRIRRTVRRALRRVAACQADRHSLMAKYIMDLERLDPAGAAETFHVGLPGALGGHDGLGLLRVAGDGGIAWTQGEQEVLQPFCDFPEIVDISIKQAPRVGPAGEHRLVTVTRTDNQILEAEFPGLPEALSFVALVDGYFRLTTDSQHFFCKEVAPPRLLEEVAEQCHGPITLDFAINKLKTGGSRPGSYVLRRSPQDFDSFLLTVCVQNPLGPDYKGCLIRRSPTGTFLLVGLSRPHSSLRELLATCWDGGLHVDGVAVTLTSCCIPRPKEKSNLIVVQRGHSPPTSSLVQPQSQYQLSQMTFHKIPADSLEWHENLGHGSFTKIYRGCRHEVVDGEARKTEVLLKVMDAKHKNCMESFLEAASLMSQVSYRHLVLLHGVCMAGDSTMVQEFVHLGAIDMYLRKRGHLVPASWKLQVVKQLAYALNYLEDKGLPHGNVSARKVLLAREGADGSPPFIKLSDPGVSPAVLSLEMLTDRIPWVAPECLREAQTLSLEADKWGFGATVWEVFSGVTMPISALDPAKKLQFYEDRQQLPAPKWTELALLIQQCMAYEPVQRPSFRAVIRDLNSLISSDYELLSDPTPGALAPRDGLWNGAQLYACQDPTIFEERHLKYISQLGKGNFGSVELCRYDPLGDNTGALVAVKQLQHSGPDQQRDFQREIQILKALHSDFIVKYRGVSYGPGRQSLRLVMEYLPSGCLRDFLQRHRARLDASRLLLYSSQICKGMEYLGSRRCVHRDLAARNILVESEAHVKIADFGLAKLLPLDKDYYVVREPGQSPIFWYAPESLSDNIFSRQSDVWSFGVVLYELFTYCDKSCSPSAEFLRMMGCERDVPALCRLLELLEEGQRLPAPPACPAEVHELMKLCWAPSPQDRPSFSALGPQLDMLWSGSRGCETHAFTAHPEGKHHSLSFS

Sequence of SRC (P12931 whole entry): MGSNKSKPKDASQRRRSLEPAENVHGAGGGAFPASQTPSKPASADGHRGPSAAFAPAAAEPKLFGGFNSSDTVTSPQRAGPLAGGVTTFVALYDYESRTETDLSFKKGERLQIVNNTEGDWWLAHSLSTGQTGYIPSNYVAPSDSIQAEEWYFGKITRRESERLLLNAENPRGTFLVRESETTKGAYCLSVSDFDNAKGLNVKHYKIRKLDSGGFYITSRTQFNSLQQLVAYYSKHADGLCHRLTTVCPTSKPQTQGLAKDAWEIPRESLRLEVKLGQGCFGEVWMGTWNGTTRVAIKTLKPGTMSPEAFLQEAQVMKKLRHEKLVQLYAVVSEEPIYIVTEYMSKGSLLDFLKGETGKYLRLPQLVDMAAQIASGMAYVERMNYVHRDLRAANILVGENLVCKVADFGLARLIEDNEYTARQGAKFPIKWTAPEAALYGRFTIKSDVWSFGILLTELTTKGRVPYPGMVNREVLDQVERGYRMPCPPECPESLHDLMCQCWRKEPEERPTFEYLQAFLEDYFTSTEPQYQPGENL

| SMILES | IC50 [1] [nM] | IC50 [2] [nM] |
| --- | --- | --- |
| C[C@@H]1[C@H](NC(=O)c2ccc(C3CC3)nc2)CCCN1c1cnc(C(N)=O)c(Nc2ccc(OC3CCC(F)(F)CC3)cc2)n1 [Example D-48, 5-[(2R,3R)-3-(6-cyclopropylpyridine-3-amido)-2-methylpiperidin-1-yl]-3-({4-[(4,4-difluorocyclohexyl)oxy]phenyl}amino)pyrazine-2-carboxamide] | 100 to 1000 | 1000 to 10000 |
| C[C@@H]1[C@H](NC(=O)c2ccc(C(C)(C)N)cc2)CCCN1c1cnc(C(N)=O)c(Nc2cnn(C)c2)n1 [Example D-51, 5-[(2R,3R)-3-[4-(2-aminopropan-2-yl)benzamido]-2-methylpiperidin-1-yl]-3-[(1-methyl-1H-pyrazol-4-yl)amino]pyrazine-2-carboxamide] | ≤ 10 | 100 to 1000 |
| C[C@@H]1[C@H](NC(=O)N(C)C)CCCN1c1cnc(C(N)=O)c(Nc2ccc(N3CCN(C)CC3)cc2F)n1 [Example D-52, 5-[(2R,3R)-3-[(dimethylcarbamoyl)amino]-2-methylpiperidin-1-yl]-3-{[2-fluoro-4-(4-methylpiperazin-1-yl)phenyl]amino}pyrazine-2-carboxamide] | 100 to 1000 | > 10000 |
| CN(C)C(=O)N[C@@H]1CCCN(c2cnc(C(N)=O)c(Nc3ccc(C4(C)CCN(C5CCCC5)CC4)cc3)n2)[C@@H]1CO [Example D-58, 3-{[4-(1-cyclopentyl-4-methylpiperidin-4-yl)phenyl]amino}-5-[(2S,3R)-3-[(dimethylcarbamoyl)amino]-2-(hydroxymethyl)piperidin-1-yl]pyrazine-2-carboxamide] | 100 to 1000 | 1000 to 10000 |
| CN(C)C(=O)N[C@H]1CCCN(c2cnc(C(N)=O)c(Nc3ccc(C4(C)CCN(C5CCCC5)CC4)cc3)n2)[C@H]1CO [Example D-59, 3-{[4-(1-cyclopentyl-4-methylpiperidin-4-yl)phenyl]amino}-5-[(2R,3S)-3-[(dimethylcarbamoyl)amino]-2-(hydroxymethyl)piperidin-1-yl]pyrazine-2-carboxamide] | 1000 to 10000 | > 10000 |
| CN(C)C(=O)N[C@@H]1CCCN(c2cnc(C(N)=O)c(Nc3ccc(C4(C)CCN(C5CCCC5)CC4)cc3)n2)[C@H]1CO [Example D-60, 3-{[4-(1-cyclopentyl-4-methylpiperidin-4-yl)phenyl]amino}-5-[(2R,3R)-3-[(dimethylcarbamoyl)amino]-2-(hydroxymethyl)piperidin-1-yl]pyrazine-2-carboxamide] | 100 to 1000 | 1000 to 10000 |
| CN(C)C(=O)N[C@H]1CCCN(c2cnc(C(N)=O)c(Nc3ccc(C4(C)CCN(C5CCCC5)CC4)cc3)n2)[C@@H]1CO [Example D-61, 3-{[4-(1-cyclopentyl-4-methylpiperidin-4-yl)phenyl]amino}-5-[(2S,3S)-3-[(dimethylcarbamoyl)amino]-2-(hydroxymethyl)piperidin-1-yl]pyrazine-2-carboxamide] | 1000 to 10000 | > 10000 |
| C[C@@H]1[C@H](NC(=O)c2ccc(C3CC3)cc2F)CCCN1c1cnc(C(N)=O)c(Nc2ccc(C3(C)CCN(C4CCCC4)CC3)cc2)n1 [Example D-66, 3-{[4-(1-cyclopentyl-4-methylpiperidin-4-yl)phenyl]amino}-5-[(2R,3R)-3-(4-cyclopropyl-2-fluorobenzamido)-2-methylpiperidin-1-yl]pyrazine-2-carboxamide] | ≤ 10 | 100 to 1000 |
| CN1CCN(C(=O)c2ccc(Nc3nc(N[C@H]4CC[C@H](NC(=O)c5ccc(C6CC6)cc5F)CC4)cnc3C(N)=O)cc2)CC1 [Example D-70, 3-{[4-(4-methylpiperazine-1-carbonyl)phenyl]amino}-5-{[(1 r,4r)-4-(4-cyclopropyl-2-fluorobenzamido)cyclohexyl]amino}pyrazine-2-carboxamide] | 100 to 1000 | 100 to 1000 |
| CN1CCN(C(=O)c2ccc(Nc3nc(N[C@H]4CC[C@@H](NC(=O)c5ccc(C6CC6)cc5F)CC4)cnc3C(N)=O)cc2)CC1 [Example D-71, 3-{[4-(4-methylpiperazine-1-carbonyl)phenyl]amino}-5-{[(1 s,4s)-4-(4-cyclopropyl-2-fluorobenzamido)cyclohexyl]amino}pyrazine-2-carboxamide] | 100 to 1000 | 10 to 100 |

Now from value to molecule:

| IC50 [1] [nM] | IC50 [2] [nM] | SMILES |
| --- | --- | --- |
| 100 to 1000 | 1000 to 10000 | C[C@@H]1[C@H](NC(=O)N(C)C)CCCN1c1cnc(C(N)=O)c(Nc2cn[nH]c2)n1 [Example D-53, 5-[(2R,3R)-3-[(dimethylcarbamoyl)amino]-2-methylpiperidin-1-yl]-3-[(1H-pyrazol-4-yl)amino]pyrazine-2-carboxamide] |
| 10 to 100 | > 10000 | C[C@@H]1[C@H](NC(=O)c2ccc3c(c2)C(C)(C)CO3)CCCN1c1cnc(C(N)=O)c(Nc2cnn(C)c2)n1 [Example D-55, 5-[(2R,3R)-3-(3,3-dimethyl-2,3-dihydro-1-benzofuran-5-amido)-2-methylpiperidin-1-yl]-3-[(1-methyl-1H-pyrazol-4-yl)amino]pyrazine-2-carboxamide] |
| 10 to 100 | > 10000 | CC1COc2cc(C(=O)N[C@@H]3CCCN(c4cnc(C(N)=O)c(Nc5cnn(C)c5)n4)[C@@H]3C)ccc2C1 (stereo partly drawn) [Example D-56, 3-[(1-methyl-1H-pyrazol-4-yl)amino]-5-[(2R,3R)-2-methyl-3-(3-methyl-3,4-dihydro-2H-1-benzopyran-7-amido)piperidin-1-yl]pyrazine-2-carboxamide] |
| 10 to 100 | 1000 to 10000 | C[C@@H]1[C@H](NC(=O)c2cnn(C(C)(C)C)c2)CCCN1c1cnc(C(N)=O)c(Nc2cnn(C)c2)n1 [Example D-57, 5-[(2R,3R)-3-(1-tert-butyl-1H-pyrazole-4-amido)-2-methylpiperidin-1-yl]-3-[(1-methyl-1H-pyrazol-4-yl)amino]pyrazine-2-carboxamide] |
| > 10000 | > 10000 | C[C@@H]1[C@H](NC(=O)c2ccc(C3CC3)cc2F)CCCN1c1cnc(C(N)=O)c(Nc2nc3c(s2)CN(C)CC3)n1 [Example D-62, 5-[(2R,3R)-3-(4-cyclopropyl-2-fluorobenzamido)-2-methylpiperidin-1-yl]-3-({5-methyl-4H,5H,6H,7H-[1,3]thiazolo[5,4-c]pyridin-2-yl}amino)pyrazine-2-carboxamide] |
| > 10000 | > 10000 | Cc1csc(Nc2nc(N3CCC[C@@H](NC(=O)c4ccc(C5CC5)cc4F)[C@H]3C)cnc2C(N)=O)n1 [Example D-63, 5-[(2R,3R)-3-(4-cyclopropyl-2-fluorobenzamido)-2-methylpiperidin-1-yl]-3-[(4-methyl-1,3-thiazol-2-yl)amino]pyrazine-2-carboxamide] |
| 100 to 1000 | 1000 to 10000 | Cc1cc(Nc2nc(N3CCC[C@@H](NC(=O)N(C)C)[C@H]3CO)cnc2C(N)=O)sn1 [Example D-67, 5-[(2S,3R)-3-[(dimethylcarbamoyl)amino]-2-(hydroxymethyl)piperidin-1-yl]-3-[(3-methyl-1,2-thiazol-5-yl)amino]pyrazine-2-carboxamide] |
| 1000 to 10000 | 1000 to 10000 | Cc1cc(Nc2nc(N3CCC[C@H](NC(=O)N(C)C)[C@@H]3CO)cnc2C(N)=O)sn1 [Example D-68, 5-[(2R,3S)-3-[(dimethylcarbamoyl)amino]-2-(hydroxymethyl)piperidin-1-yl]-3-[(3-methyl-1,2-thiazol-5-yl)amino]pyrazine-2-carboxamide] |
| 100 to 1000 | 100 to 1000 | CN1CCN(C(=O)c2ccc(Nc3nc(N[C@H]4CC[C@H](NC(=O)N(C)C)CC4)cnc3C(N)=O)cc2)CC1 [Example D-69, 3-{[4-(4-methylpiperazine-1-carbonyl)phenyl]amino}-5-{[(1 r,4r)-4-[(dimethylcarbamoyl)amino]cyclohexyl]amino}pyrazine-2-carboxamide] |
| 100 to 1000 | 1000 to 10000 | CN1CCN(C(=O)c2ccc(Nc3nc(N[C@H]4CC[C@@H](NC(=O)N(C)C)CC4)cnc3C(N)=O)cc2)CC1 [Example D-72, 3-{[4-(4-methylpiperazine-1-carbonyl)phenyl]amino}-5-{[(1s,4s)-4-[(dimethylcarbamoyl)amino]cyclohexyl]amino}pyrazine-2-carboxamide] |
| 100 to 1000 | > 10000 | C[C@@H]1[C@H](NC(=O)c2ccc(C3CC3)cc2F)CCCN1c1cnc(C(N)=O)c(Nc2ccc(N3CCOCC3)cc2)n1 [Example D-73, 5-[(2R,3R)-3-(4-cyclopropyl-2-fluorobenzamido)-2-methylpiperidin-1-yl]-3-{[4-(morpholin-4-yl)phenyl]amino}pyrazine-2-carboxamide] |
